Consider 8 molecules from US20110020362A1, “Adrenergic stimulation mediates hypersensitivity by inducing nerve growth factor expression” (priority 2009, published 2011).

“Also recorded” adds a separate entry of the source.

The test system of data set [1] is rats subjected to heterotypic chronic stress. Description: Viscero-motor response (VMR) to graded colorectal distension after nine-day heterotypic chronic stress. It counts as in vivo, rat. The conditions noted are these: for heterotypic chronic stress-induced increase in viscero-motor response to colorectal distension: entire nine-day HeCS, post-HeCS vs baseline. As for the experimental part:
Two electrodes were implanted under general 2% isofluorane anesthesia in the external oblique abdominal muscle and exteriorized in the subscapular region. Rats were allowed one week to recover from surgery. Under 2% isofluoruthane anesthesia, a 5 cm long balloon constructed from a surgical glove finger and attached to tygon tubing was inserted 7 cm into the descending colon and rectum. Rats were placed in small Lucite cubicles (20×8×8 cm) and allowed to adapt for 30 minutes. colorectal distension was performed by rapidly inflating the balloon to constant pressures: 20, 30, 40, 50, 60 & 80 mm Hg, for 20 seconds followed by 2-minute rest. Electromygraphic (EMG) activity from the external oblique muscle was recorded on Biopac equipment (Biopac Systmes, Inc., Santa Barbara, Calif.). The EMG signal was amplified, filtered at 300 Hz and digitized. The area under the curve (AUC) for the EMG signal during each 20 seconds of distention was calculated using Acknowledge software (Biopac Systmes, Inc). The net value for each distension period was calculated by subtracting the baseline value derived from the average AUC for 20 seconds before and 20 seconds after the distention period.
(§1) A catheter (ReCathco) was inserted through the occipital membrane onto the top of the spinal cord. The end of the catheter rested at about L1. After measurement of baseline response to colorectal distension, the catheter was primed with the appropriate solution and connected to subcutaneously implanted osmotic pump (Durect Corporation, Cupertino, Calif.) filled with appropriate solution. The pump delivered a constant infusion of 0.93 μL/hour for 10.6 days. K252a, a non-specific antagonist of tyrosine kinase receptors (trk) including the high affinity trkA receptors (11), was dissolved in DMSO and administered in sterile saline containing 10% DMSO at a concentration of 0.067 mg/mL. Each rat received an initial bolus infusion of 0.67 μg followed by 1.5 μg/day from the osmotic pump. Previously validated anti-sense and missense oligonucleotides were used (12), TrkA antisense: […] (SEQ ID NO: 1) and mismatch: […] (SEQ ID NO: 2). Oligos were HPLC purified and purchased from Invitrogen. Rats received an initial bolus dose of 10 nmole in 10 uL. The catheter was attached to the pump, which delivered oligo at a rate of 0.5 nmole/hour. Stress protocol started 24-hours after attachment of the pump. Nerve growth factor neutralizing antibody (16 μg/kg i.p. in 0.5) was purchased from R&D systems (Minneapolis, Minn.) and reconstituted in phosphate buffered saline (PBS). Control rats received PBS containing an equal concentration of goat non-immune serum.

Data set [2] has as its system TL colon dorsal root ganglia neurons. Description: Patch-clamp electrophysiology of DiI-labeled colon-specific TL dorsal root ganglia neurons from treated rats. In kind it is in vivo, rat. The procedure:
The lipid soluble fluorescent dye 1,1′dioleyl-3,3,3′,3′-tetramethylindocarbocyanine methanesulfonate (DiI-I), 25 mg in 0.5 mL methanol, was injected in 2 μL volumes at eight to ten sites in distal colon wall starting at the pelvic girdle and moving toward the cecum. TL dorsal root ganglia neurons were isolated from dorsal root ganglia T13, L1 and L2 were dissected out and put in an ice-cold, oxygenated dissecting solution, containing (in mM): 130 NaCI, 5 KCI, 2 KH2PO4, 1.5 CaCl2, 6 MgSO4, glucose, and 10 HEPES, pH 7.2 (osmolarity, 305 mOsm), as described (10). Connective tissue free ganglia were transferred to a 10 ml dissecting solution containing collagenase D (1.8 mg/mL, Roche) and trypsin (1.0 mg/mL; Sigma, St. Louis, Mo.), and incubated for 1.5 hours at 34.5° C. DRGs are then taken from the enzyme solution, washed, and put in 2 mL of the dissecting solution containing DNase (0.5 mg/mL; Sigma). Cells were subsequently dissociated by trituration with fire-polished glass pipettes and placed on acid-cleaned glass cover slips. Dorsal root ganglia neurons containing the retrograde label were identified as bright red neurons using fluorescent microscopy with a rhodamine filter (excitation 546, barrier filter at 580) and Hoffman contrast optics. For current clamp experiment, cells were superfused (1.5 mL/min) at room temperature with control external solution containing (in mM): 130 NaCI, 5 KCI, 2 KH2PO4, 2.5 CaCl2, 1 MgCl2, 10 HEPES, and 10 glucose, pH adjusted to 7.4 with NaOH (295-300 mOsm). Recording pipettes pulled from borosilicate glass tubing had resistance of 1-4 MΩ. For perforated patch recording, pipette tip was initially filled with amphotericin-free pipette solution, containing (in mM): 100 KmeSO3, 40 KCI, and 10 HEPES, pH 7.25 adjusted with KOH (osmolarity, 290 mOsm). The pipette was then backfilled with same pipette solution containing amphotericin B (300 μg/ml). Whole cell currents and voltage were recorded with Dagan 3911 patch clamp amplifier; and data were acquired and analyzed by pCLAMP 9.2 (Axon Instruments). The currents were filtered at 2-5 kHz and sampled at 50 or 100 μsec per point.
as §1
(In general: Patch clamp records ionic current or voltage across a cell membrane.)

The test system of data set [3] is mucosal afferent mechanoreceptors. The note with it: IBS patients; cited from earlier work.
The next data set concerns nerve growth factor. Description: Nerve growth factor expression in distal colon tissue strips incubated in vitro with norepinephrine. It counts as cell-based, rat.
The subject of data set [4] is TL colon dorsal root ganglia neurons. Description: Electrophysiology of TL colon dorsal root ganglia neurons incubated in vitro with nerve growth factor. The note with it: 24 hours in vitro, high (250 ng/mL) vs low (2.5 ng/mL). In kind it is cell-based, rat. As for the experimental part: The lipid soluble fluorescent dye 1,1′dioleyl-3,3,3′,3′-tetramethylindocarbocyanine methanesulfonate (DiI-I), 25 mg in 0.5 mL methanol, was injected in 2 μL volumes at eight to ten sites in distal colon wall starting at the pelvic girdle and moving toward the cecum. TL dorsal root ganglia neurons were isolated from dorsal root ganglia T13, L1 and L2 were dissected out and put in an ice-cold, oxygenated dissecting solution, containing (in mM): 130 NaCI, 5 KCI, 2 KH2PO4, 1.5 CaCl2, 6 MgSO4, glucose, and 10 HEPES, pH 7.2 (osmolarity, 305 mOsm), as described (10). Connective tissue free ganglia were transferred to a 10 ml dissecting solution containing collagenase D (1.8 mg/mL, Roche) and trypsin (1.0 mg/mL; Sigma, St. Louis, Mo.), and incubated for 1.5 hours at 34.5° C. DRGs are then taken from the enzyme solution, washed, and put in 2 mL of the dissecting solution containing DNase (0.5 mg/mL; Sigma). Cells were subsequently dissociated by trituration with fire-polished glass pipettes and placed on acid-cleaned glass cover slips. […] Whole cell currents and voltage were recorded with Dagan 3911 patch clamp amplifier; and data were acquired and analyzed by pCLAMP 9.2 (Axon Instruments). […]

The conditions of data set [5]: exogenous administration; cited from earlier work.
The subject of a further data set is trkA. Description: Western blot of trkA expression in dorsal root ganglia after intrathecal oligonucleotide. It counts as in vivo, rat. The procedure: as §1
Background: In western blotting, separated proteins are transferred to a membrane and probed.

[6] abbreviates: HeCS rats, intrathecal application.
Where [7] appears, read: in vitro incubation for 24 hours.
Where [8] appears, read: HeCS rats, 200 μg/kg intraluminal in distal colon one day before HeCS.
The mark [9] stands for this setting: sham stressed rats, 200 μg/kg intraluminal in distal colon.
Where [10] appears, read: intrathecal oligonucleotide, bolus 10 nmole then 0.5 nmole/hour.

Turning to `COC(=O)[C@@]1(O)C[C@H]2O[C@]1(C)n1c3ccccc3c3c4c(c5c6ccccc6n2c5c31)C(=O)NC4` [k252a, K252a], the “heterotypic chronic stress-induced increase in viscero-motor response to colorectal distension” value in data set [1] (intrathecal osmotic pump, bolus 0.67 μg then 1.5 μg/day) is on record as “no significant difference”. For the same molecule, in data set [1] (intrathecal osmotic pump, bolus 0.67 μg then 1.5 μg/day, listed as k252A), the “heterotypic chronic stress-induced increase in viscero-motor response to colorectal distension” value is on record as “suppressed”. Besides, in data set [2] (setting [6]), the “HeCS-induced decrease in rheobase” value is listed as “significantly attenuated”, the “HeCS-induced depolarization of resting membrane potential” value is “significantly attenuated” and the “HeCS-induced increase in the number of action potentials at 2× rheobase” value is “significantly attenuated”. In data set [2] (HeCS rats, intrathecal treatment), the “HeCS-induced increase in excitability of TL colon dorsal root ganglia neurons” value is “blocked”.

As to `CCN(CC)CC(=O)Nc1c(C)cccc1C` [lidocaine], in data set [3], the “pain-perception to rapid balloon distension” value is reported as “does not affect” and the “sensory perception to slow distension” value is listed as “blocks”.

In the case of `NC[C@H](O)c1ccc(O)c(O)c1` [norepinephrine], in the data set on nerve growth factor (setting [7]), the “expression of nerve growth factor in mucosa/submucosa” value is listed as “concentration-dependently increased” and the “expression of nerve growth factor in muscularis externa/serosa” value was “concentration-dependently increased”.

Turning to `C=C(C)[C@]12C[C@@H](C)[C@@]34O[C@](Cc5ccccc5)(O[C@@H]1[C@@H]3C=C(COC(=O)Cc1ccc(O)c(OC)c1)C[C@]1(O)C(=O)C(C)=C[C@@H]41)O2` [resiniferatoxin], the “induction of visceral hypersensitivity to colorectal distension” value in data set [1] (desensitization of afferent nerve endings, 200 μg/kg intraluminal in distal colon one day before HeCS) is on record as “blocked the induction of visceral hypersensitivity”. For the same molecule, in data set [2] (setting [8]), the “HeCS-induced increase in the number of action potentials at 2× rheobase” value is given as “significantly blocked” and the “HeCS-induced reduction in rheobase” value is “significantly blocked”. In addition, in data set [2] (setting [9]), the resting membrane potential entry was “no significant effect” and the rheobase entry is “no significant effect”.

With “MM oligonucleotide: mismatch control oligonucleotide: CAACATCGAAGTGACGAGACCG (SEQ ID NO: 2) (listed as DNA, chemistry not given here)”, the “heterotypic chronic stress-induced increase in viscero-motor response to colorectal distension” value in data set [1] (setting [10]) is recorded as “significant increase”.

For the molecule astressin, in the data set on nerve growth factor (in vitro, with norepinephrine), the “norepinephrine-induced expression of nerve growth factor in mucosa/submucosa” value is “blocked this increase; also recorded: blocked this effect” and the “norepinephrine-induced expression of nerve growth factor in muscularis externa/serosa” value is reported as “had no effect; also recorded: no significant effect”.

For the molecule “nerve growth factor: neurotrophin, nerve growth factor (NGF), applied to neurons in vitro at 250 or 2.5 ng/mL”, in data set [4], the resting membrane potential result is “significant decline” and the rheobase result was “significant decline”. Also, the inflammatory hyperalgesia result in data set [5] is given as “mimics inflammatory hyperalgesia”.

Take “trkA AS oligonucleotide: TrkA antisense: CATCAACGAAGTCACCAGACCG (SEQ ID NO: 1), previously validated, HPLC purified, from Invitrogen (listed as DNA, chemistry not given here)”: the “heterotypic chronic stress-induced increase in viscero-motor response to colorectal distension” value is “no significant difference” in data set [1] (setting [10]) and “suppressed” in data set [1] (intrathecal oligonucleotide, bolus 10 nmole then 0.5 nmole/hour, listed as anti-sense ODN). In addition, in the data set on trkA (intrathecal, catheter tip at about L1), the “expression of trkA in TL dorsal root ganglia, relative to rats treated with MM oligonucleotide” value was “about 50%”. Further, the “trkA levels in LS DRG” value in the data set with trkA (several segments caudal to the catheter tip, vs MM oligonucleotide) is given as “No significant difference”. Moreover, in the data set on trkA (several segments rostral to the catheter tip, vs MM oligonucleotide), the “trkA levels in thoracic dorsal root ganglion” value was “No significant difference”.
